Earlier results on 3 compounds are cited in patent US12686875B2, “Small molecules for increasing precise genome editing efficiency” (Max-Planck-Gesellschaft zur Förderung der Wissenschaften …, priority 2018, dated 2026).

Data set [1] relates to mouse ESCs. The conditions noted are these: dsODN donors, from 17.7% without L755507 (Yu et al. 2015); cited from earlier work.
Data set [2] deals with hiPSCs. The conditions noted are these: cited from earlier work.
The test system of data set [3] is HEK293A cells. The conditions noted are these: cited from earlier work.
Data set [4] has as its system precise genome editing (PGE). The note with it: SCR7 and L755507 added together with RS-1; cited from earlier work.
Data set [5] has as its system porcine fetal fibroblasts. The conditions noted are these: ssODN donors (Wang et al. 2016); cited from earlier work.
For data set [6], the system named is rabbit embryos. The note with it: cited from earlier work.
For data set [7], the system named is U2OS cells. The conditions noted are these: dsODN donors, from 1.9% without RS-1; cited from earlier work.
Data set [8] relates to human stem cells. The note with it: cited from earlier work.
Data set [9] deals with human LIG4 (Homo sapiens, UniProt P49917). The conditions noted are these: Greco et al. 2016; cited from earlier work.
Data set [10] has as its system mouse embryos. The conditions noted are these: cited from earlier work.

Sequence of human LIG4 (P49917 whole entry): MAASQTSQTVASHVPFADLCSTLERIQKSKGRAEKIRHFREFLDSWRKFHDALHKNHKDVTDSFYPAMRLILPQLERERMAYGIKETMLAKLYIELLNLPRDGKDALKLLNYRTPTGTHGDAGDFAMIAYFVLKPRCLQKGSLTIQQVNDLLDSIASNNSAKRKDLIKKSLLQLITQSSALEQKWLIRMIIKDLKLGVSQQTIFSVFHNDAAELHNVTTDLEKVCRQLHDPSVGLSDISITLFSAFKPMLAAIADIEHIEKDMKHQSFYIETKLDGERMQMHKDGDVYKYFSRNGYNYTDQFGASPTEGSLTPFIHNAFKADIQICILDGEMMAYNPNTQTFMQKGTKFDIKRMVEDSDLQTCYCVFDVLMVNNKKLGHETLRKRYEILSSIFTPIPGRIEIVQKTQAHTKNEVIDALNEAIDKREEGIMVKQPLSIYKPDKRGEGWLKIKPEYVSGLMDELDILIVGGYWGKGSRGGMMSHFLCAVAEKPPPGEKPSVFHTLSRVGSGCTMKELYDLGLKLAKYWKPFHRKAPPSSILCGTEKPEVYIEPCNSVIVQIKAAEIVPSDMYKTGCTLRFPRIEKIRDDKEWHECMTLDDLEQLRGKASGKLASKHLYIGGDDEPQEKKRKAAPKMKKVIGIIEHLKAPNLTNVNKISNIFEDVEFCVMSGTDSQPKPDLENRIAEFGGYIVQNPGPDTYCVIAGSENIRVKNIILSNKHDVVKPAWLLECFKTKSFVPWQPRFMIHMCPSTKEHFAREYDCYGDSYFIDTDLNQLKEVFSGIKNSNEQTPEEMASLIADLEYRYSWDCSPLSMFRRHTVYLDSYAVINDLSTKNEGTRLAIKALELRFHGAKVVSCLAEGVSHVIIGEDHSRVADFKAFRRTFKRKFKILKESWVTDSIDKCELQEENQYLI
Sequence of human LIG4 (Q13426 whole entry partner): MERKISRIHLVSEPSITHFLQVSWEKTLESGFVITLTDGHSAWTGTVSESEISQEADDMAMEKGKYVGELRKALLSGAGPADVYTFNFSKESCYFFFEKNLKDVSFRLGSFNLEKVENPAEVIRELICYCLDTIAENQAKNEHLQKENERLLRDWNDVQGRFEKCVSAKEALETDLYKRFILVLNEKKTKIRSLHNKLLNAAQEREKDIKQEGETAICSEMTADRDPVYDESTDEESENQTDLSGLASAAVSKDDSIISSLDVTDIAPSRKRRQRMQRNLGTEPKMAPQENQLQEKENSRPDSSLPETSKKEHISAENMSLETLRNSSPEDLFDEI

On to `CCCCCCNC(=O)Nc1ccc(S(=O)(=O)Nc2ccc(CCNC[C@H](O)COc3ccc(O)cc3)cc2)cc1` [L755507], for which the PGE in [1] was 33.3%; in data set [2] (hiPSCs, ssODN, from 0.35% without L755507 (Yu et al. 2015)) it was 3.13%. In addition, the “stimulation of PGE” value in data set [2] (hiPSCs (Zhang et al. 2017)) is recorded as “did not find significant stimulation”. Besides, in [3], the “effect on PGE” value is on record as “did not find significant stimulation”. Also, in [4], the “effect on PGE when added together with RS-1, compared to RS-1 alone” value is reported as “no additive effect”.

On to `O=C(Nc1ccc(Br)cc1)c1ccc(Br)c(S(=O)(=O)NCc2ccccc2)c1` [RS-1], for which the “effect on PGE efficiency” value in data set [5] was “No effect”. Moreover, the “increase of PGE” value in data set [2] (hiPSCs, dsODN donors (Zhang et al., 2017)) is “not”. In addition, the PGE in [3] (dsODN donors, from 3.5% without RS-1) is given as 21%; in [6] (dsODN donors, from 4.4% without RS-1), 26.1%; in data set [7], 2.4%.

Regarding `O=c1[nH]c(=S)[nH]c(N=Cc2ccccc2)c1N=Cc1ccccc1` [SCR7], the “effect on PGE” value in [8] was “no significant effect”; in [3], “marginal but significant increase”; in [6], “no significant effect”; in [10] (other researchers) it was “no significant effect”. Also, in data set [9], the “inhibitory properties on human LIG4” value is listed as “neither selective nor potent inhibitors”. In addition, the “efficiency of PGE” value in data set [10] (from 5% without SCR7 (Maruyama et al. 2015)) was 22.7%. For the same compound, the “effect on PGE when added together with RS-1, compared to RS-1 alone” value in data set [4] is on record as “no additive effect”.
